Marks after values point to notes of the source that are not given here.
Key:
FLT3 (h) = molecular target: T1, FLT3 (h) (Homo sapiens, UniProt P36888); assay: FLT3 (h) kinase assay; format: biochemical; details: [γ-33P-ATP] 10 μM or KM values; cells of the FLT3 (h) column without (Flt4) tag
T1 construct: purchased Millipore UK Ltd (assays performed there as a service)
T1 sequence (P36888 27-993): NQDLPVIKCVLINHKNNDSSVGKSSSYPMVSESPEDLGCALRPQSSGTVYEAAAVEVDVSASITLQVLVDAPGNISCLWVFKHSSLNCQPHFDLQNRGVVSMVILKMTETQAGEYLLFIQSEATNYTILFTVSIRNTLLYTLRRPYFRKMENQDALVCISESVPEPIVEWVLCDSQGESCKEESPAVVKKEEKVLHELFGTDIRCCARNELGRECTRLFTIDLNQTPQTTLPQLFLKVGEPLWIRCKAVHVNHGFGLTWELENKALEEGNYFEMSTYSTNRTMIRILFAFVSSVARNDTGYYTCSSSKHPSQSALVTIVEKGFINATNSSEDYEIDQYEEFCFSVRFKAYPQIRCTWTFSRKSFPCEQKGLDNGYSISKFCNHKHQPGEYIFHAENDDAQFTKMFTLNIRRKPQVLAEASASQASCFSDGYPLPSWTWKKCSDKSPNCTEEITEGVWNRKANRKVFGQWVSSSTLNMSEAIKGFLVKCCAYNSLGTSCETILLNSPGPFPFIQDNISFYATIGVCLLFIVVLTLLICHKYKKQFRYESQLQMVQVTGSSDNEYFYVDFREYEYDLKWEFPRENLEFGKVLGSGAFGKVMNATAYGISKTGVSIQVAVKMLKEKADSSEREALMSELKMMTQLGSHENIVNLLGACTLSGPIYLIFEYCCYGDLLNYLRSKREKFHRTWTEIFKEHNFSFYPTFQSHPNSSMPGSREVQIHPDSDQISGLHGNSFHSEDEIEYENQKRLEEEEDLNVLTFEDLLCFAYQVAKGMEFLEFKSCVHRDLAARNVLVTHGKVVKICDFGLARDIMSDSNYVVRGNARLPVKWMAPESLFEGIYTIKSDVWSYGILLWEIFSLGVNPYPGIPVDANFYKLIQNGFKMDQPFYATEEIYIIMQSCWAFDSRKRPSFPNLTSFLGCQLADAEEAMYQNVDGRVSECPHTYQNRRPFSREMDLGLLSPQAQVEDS
Method: Kinase assays can be performed by measurement of incorporation of γ-^33P ATP into immobilized myelin basic protein (MBP). High binding white 384 well plates (Greiner) are coated with MBP (Sigma # M-1891) by incubation of 60 μL well of 20 μg/mL MBP in Tris-buffered saline (TBS; 50 mM Tris pH 8.0, 138 mM NaCl, 2.7 mM KCl) for 24 h at 4° C. Plates are washed 3× with 100 μL TBS. Kinase reactions are carried out in a total volume of 34 μL in kinase buffer (according to the need to make, for example, 5 mM Hepes pH 7.6, 15 mM NaCl, 0.01% bovine gamma globulin (Sigma #1-5506), 10 mM MgCl2, 1 mM DTT, 0.02% TritonX-100). Compound dilutions are performed in DMSO and added to assay wells to a final DMSO concentration of 1%. Each data point is measured in duplicate, and at least two duplicate assays are performed for each individual compound determination. Enzyme is added to final concentrations of 10 nM or 20 nM, for example. A mixture of unlabeled ATP and γ-^33P ATP is added to start the reaction (2×10^6 cpm of γ-^33P ATP per well (3000 Ci/mmole) and 10 μM unlabeled ATP, typically. The reactions are carried out for 1 hour at room temperature with shaking. Plates are washed 7× with TBS, followed by the addition of 50 μL well scintillation fluid (Wallac). Plates are read using a Wallac Trilux counter. This is only one format of such assays; various other formats are possible, as known to one skilled in the art.
The above assay procedure can be used to determine the IC50 for inhibition and/or the inhibition constant, Ki. […] The IC50 value is estimated by preparing a 10 point curve using a ½ log dilution series (for example, a typical curve may be prepared using the following compound concentrations: 3 μM, 1 μM, 0.3 μM, 0.1 μM, 0.03 μM, 0.01 μM, 0.003 μM, 0.001 μM, 0.0003 μM and 0 μM).
FLT3 (h) is incubated with 8 mM MOPS pH 7.0, 0.2 mM EDTA, 50 μM […], 10 mM MgAcetate and [γ-^33P-ATP] […] The reaction is initiated by the addition of the MgATP mix. […]

[1] = tested on: PMA-induced increase in mouse ear thickness and weight; assay: Topical PMA-induced acute atopic dermatitis in ICR mice; format: in vivo; details: ICR female mice, 0.3 mg/ear/bid topical
Method: ICR female mice (20-30 g), five mice or nine mice/group, were used in this study. Five micrograms of PMA (phorbol 12-myristate 13-acetate) in 20 μL of ethanol was applied topically to the anterior and posterior surface of the right ear of each mouse. Twenty microliters of vehicle (ethanol/acetone ([…])=1/1); 0.3 mg of EX. 68 ([…]); EX. 76, EX. 50, EX. 92 or EX. 65 (0.3 mg […]) were administrated to the same areas 30 minutes before and 15 minutes after PMA application. The thickness of right ears of each mouse was measured 6 hours after PMA stimulation. Ear weight of right ears of each mouse was weighed with analytical balance Each value represents the Mean±Sem. Statistical significance compared with model groups (*P<0.05; **P<0.01). Tables 5-1, 5-2 and 5-3 listed the inhibitory effect on PMA-induced increase in mouse ear thickness and weight. The compounds of the present invention have a good inhibitory effect on PMA-induced increase in mouse ear thickness and weight.

Row | IC50 (FLT3 (h)) [nM] | Compound | Weight Inhibition ratio [1] [%] | thickness (right ear) ([1]; 30 minutes before and 15 minutes after PMA, 6 hours after PMA, Mean±Sem) | Weight (right ear) ([1]; 30 minutes before and 15 minutes after PMA, Mean±Sem) | thickness Inhibition ratio ([1]; 6 hours after PMA) [%]
1 | 591 | CCC1CN(c2ccc(C#N)nn2)CCC1Nc1nc(Nc2ccn3c(C)cnc3c2)ncc1Cl (stereo not shown) [Example 3, 6-(4-((5-chloro-2-((3-methylimidazo[1,2-a]pyridin-7-yl)amino)pyrimidin-4-yl)amino)-3-ethylpiperidin-1-yl)pyridazine-3-carbonitrile] | – | – | – | –
2 | – | CC(C)(O)c1cnc2cc(Nc3ncc(Cl)c(NC4CCN(c5ccc(C#N)cn5)CC4)n3)ccn12 [Example 68, 6-(4-((5-chloro-2-((3-(2-hydroxypropan-2-yl)imidazo[1,2-a]pyridin-7-yl)amino)pyrimidin-4-yl)amino)piperidin-1-yl)nicotinonitrile] | 80.6 | 0.219 ± 0.007** mm | 18.11 ± 1.14* mg | 86.6
3 | 287 | CCC1CN(c2ccc(C#N)cn2)CCC1Nc1nc(Nc2ccn3c(C)cnc3c2)ncc1Cl (stereo not shown) [Example 2, 6-(4-((5-chloro-2-((3-methylimidazo[1,2-a]pyridin-7-yl)amino)pyrimidin-4-yl)amino)-3-ethylpiperidin-1-yl)nicotinonitrile] | – | – | – | –
4 | 667 | Cc1cnc2cc(Nc3ncc(Cl)c(NC4CCN(c5ccc(C#N)nn5)CC4)n3)ccn12 [Example 12, 6-(4-((5-chloro-2-((3-methylimidazo[1,2-a]pyridin-7-yl)amino)pyrimidin-4-yl)amino)piperidin-1-yl)pyridazine-3-carbonitrile] | – | – | – | –
